# Laboratory results taken from patent US20230416329A1, “A PEPTIDE WITH DISULFIDE BONDS AND INHIBITORY ACTIVITY AGAINST SERINE PROTEASES, DERIVED HYBRID PEPTIDES THEREOF, AND USES THEREOF” (INSTITUTE OF MATERIA MEDICA , CHINESE ACADEMY OF MEDICAL …, priority 2020, published 2023).
# What was measured:
# [1] = target: DPP-IV (Homo sapiens, UniProt P27487); experiment: Tolerance of GLP-1 and its analogues to DPP-IV (RP-HPLC remaining peak area); type: in vitro ADME; conditions: peptide 25 μM, DPP-IV 0.5 ng/μL, 37° C.
# Method: (§1) Mix by centrifugation at 8000 rpm for 30 seconds.
# (2) Arrange a certain volume of 0.005 μg/μL DPP-IV solution in another sterile EP.
# [2] = target: NEP24.11 (Homo sapiens, UniProt P08473); experiment: Tolerance of GLP-1 and its analogues to NEP24.11 (RP-HPLC remaining peak area); type: in vitro ADME; conditions: peptide 30 μM, NEP24.11 1.0 ng/μL, 37° C.
# Method: as §1
# Arrange a certain volume of 0.04 μg/μL NEP24.11 enzyme solution in another sterile EP.
# [3] = target: T1, trypsin (Bos taurus, UniProt P00760); experiment: in vitro; conditions: isolated enzyme trypsin, pH 7.8
# T1 sequence (P00760 24-246): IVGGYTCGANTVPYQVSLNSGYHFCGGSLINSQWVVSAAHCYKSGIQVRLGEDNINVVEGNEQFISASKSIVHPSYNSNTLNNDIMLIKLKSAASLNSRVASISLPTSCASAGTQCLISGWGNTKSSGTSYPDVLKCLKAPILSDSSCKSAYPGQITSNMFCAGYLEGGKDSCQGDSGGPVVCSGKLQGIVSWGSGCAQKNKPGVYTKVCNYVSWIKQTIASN
# Method: FIG. 17. […] At different time point, 25 μL aliquots was taken out, and 10% (v/v) TFA was added to terminate the reaction.
# as §1
# (§2) Arrange a certain volume of 0.05 μg/μL trypsin solution in another sterile EP. Incubate the EP tubes containing peptides and enzymes at 37° C. for 5 min, and separately add 6 μL of trypsin solution to each EP tube containing peptides and mix well. Start timing and extract 25 μL of reaction solution at 1.5, 3.0, 4.5, 6.0 and 9.0 min later, respectively. Add 3.75 μL of 10% TFA to terminate the reaction and mix well by centrifugation at 8000 rpm for 30 seconds.
# as §2, with “and” for “and separately”, “9” for “6”, “6.0, 9.0, 15.0, 30.0,” for “6.0”, “60.0” for “9.0”
# Referring to the experimental method in Example 5, in vitro stability of salmon Calcitonin analogs with oral administration activity to the enzymatic hydrolysis by trypsin, chymotrypsin and elastase were performed.
# Referring to the experimental method in Example 5, in vitro stability of IL-17A inhibitory peptides towards the enzymatic hydrolysis by trypsin, chymotrypsin and elastase were performed.
# [4] = target: chymotrypsin (Bos taurus, UniProt P00766); experiment: in vitro; conditions: isolated enzyme chymotrypsin, pH 7.8, Remaining peak area (%)/chymotrypsin
# Procedure, shortened: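 Peptide and 0.05 μg/μL chymotrypsin were preincubated at 37 °C for 5 min, then mixed. Aliquots taken from 1.5 up to 60.0 min were quenched with 10% TFA, and remaining peptide was measured as RP-HPLC peak area.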
# DPP-IV, sequence (P27487 whole entry, species assumed): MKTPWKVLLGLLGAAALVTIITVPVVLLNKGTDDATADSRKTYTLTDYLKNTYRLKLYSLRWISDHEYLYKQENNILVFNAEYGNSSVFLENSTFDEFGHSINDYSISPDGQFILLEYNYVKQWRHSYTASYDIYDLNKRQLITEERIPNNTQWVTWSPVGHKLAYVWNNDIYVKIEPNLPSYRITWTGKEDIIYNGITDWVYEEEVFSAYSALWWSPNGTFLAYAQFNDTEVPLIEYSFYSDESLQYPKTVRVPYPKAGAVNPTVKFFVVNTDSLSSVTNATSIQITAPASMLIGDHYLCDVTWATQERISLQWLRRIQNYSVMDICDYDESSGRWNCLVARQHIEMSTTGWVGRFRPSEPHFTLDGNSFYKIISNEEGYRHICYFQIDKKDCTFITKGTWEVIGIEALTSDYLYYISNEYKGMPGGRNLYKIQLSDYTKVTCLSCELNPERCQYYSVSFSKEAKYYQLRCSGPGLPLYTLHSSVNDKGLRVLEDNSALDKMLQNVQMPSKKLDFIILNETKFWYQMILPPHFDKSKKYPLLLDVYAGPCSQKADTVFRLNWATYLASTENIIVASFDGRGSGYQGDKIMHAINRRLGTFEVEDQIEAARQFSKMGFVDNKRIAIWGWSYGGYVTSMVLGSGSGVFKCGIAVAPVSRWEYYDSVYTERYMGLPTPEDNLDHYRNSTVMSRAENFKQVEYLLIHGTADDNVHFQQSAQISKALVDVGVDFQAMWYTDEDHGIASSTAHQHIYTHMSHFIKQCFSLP
# NEP24.11, sequence (P08473 whole entry): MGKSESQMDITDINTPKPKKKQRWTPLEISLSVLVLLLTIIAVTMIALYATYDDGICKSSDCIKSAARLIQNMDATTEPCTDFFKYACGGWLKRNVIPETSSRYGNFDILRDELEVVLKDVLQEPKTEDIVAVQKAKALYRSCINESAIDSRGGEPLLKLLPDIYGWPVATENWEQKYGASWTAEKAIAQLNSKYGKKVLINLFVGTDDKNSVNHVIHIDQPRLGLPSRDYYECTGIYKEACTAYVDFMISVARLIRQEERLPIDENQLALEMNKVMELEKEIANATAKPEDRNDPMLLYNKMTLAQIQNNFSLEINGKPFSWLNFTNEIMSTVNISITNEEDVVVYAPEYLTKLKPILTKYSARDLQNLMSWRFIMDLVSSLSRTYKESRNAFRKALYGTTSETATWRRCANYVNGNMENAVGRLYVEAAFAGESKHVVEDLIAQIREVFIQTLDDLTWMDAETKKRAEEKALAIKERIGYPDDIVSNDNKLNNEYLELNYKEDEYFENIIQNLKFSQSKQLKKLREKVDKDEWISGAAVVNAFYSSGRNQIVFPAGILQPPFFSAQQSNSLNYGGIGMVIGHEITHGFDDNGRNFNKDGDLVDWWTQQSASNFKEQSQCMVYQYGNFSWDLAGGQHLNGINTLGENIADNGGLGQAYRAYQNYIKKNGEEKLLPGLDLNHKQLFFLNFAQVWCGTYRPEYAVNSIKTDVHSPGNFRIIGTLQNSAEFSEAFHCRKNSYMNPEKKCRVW
structure (smiles),measurement,setting,value
CC[C@H](C)[C@H](NC(=O)[C@H](Cc1ccccc1)NC(=O)[C@H](CCC(=O)O)NC(=O)[C@H](CCCCN)NC(=O)[C@H](C)NC(=O)[C@H](C)NC(=O)[C@H](CCC(N)=O)NC(=O)CNC(=O)[C@H](CCC(=O)O)NC(=O)[C@H](CC(C)C)NC(=O)[C@H](Cc1ccc(O)cc1)NC(=O)[C@H](CO)NC(=O)[C@H](CO)NC(=O)[C@@H](NC(=O)[C@H](CC(=O)O)NC(=O)[C@H](CO)NC(=O)[C@@H](NC(=O)[C@H](Cc1ccccc1)NC(=O)[C@@H](NC(=O)CNC(=O)[C@H](CCC(=O)O)NC(=O)[C@H](C)NC(=O)[C@H](Cc1c[nH]cn1)NC(=O)CNC(=O)CNC(=O)[C@H](CCCNC(=N)N)NC(=O)[C@H](CO)NC(=O)[C@H](Cc1ccccc1)NC(=O)[C@H](CCCNC(=N)N)NC(=O)[C@H](CCC(N)=O)NC(=O)CNC(=O)CNC(=O)[C@@H]1CCCN1C(=O)[C@H](Cc1ccccc1)NC(=O)[C@@H]1CSSC[C@H](NC(=O)[C@H](CCCNC(=N)N)NC(=O)CN)C(=O)N[C@@H]([C@@H](C)O)C(=O)N[C@@H](CCCCN)C(=O)N[C@@H](CO)C(=O)N[C@@H]([C@@H](C)CC)C(=O)N2CCC[C@H]2C(=O)N2CCC[C@H]2C(=O)N[C@@H]([C@@H](C)CC)C(=O)N1)[C@@H](C)O)[C@@H](C)O)C(C)C)C(=O)N[C@@H](C)C(=O)N[C@@H](Cc1c[nH]c2ccccc12)C(=O)N[C@@H](CC(C)C)C(=O)N[C@H](C(=O)N[C@@H](CCCCN)C(=O)NCC(=O)N[C@@H](CCCNC(=N)N)C(=O)NCC(=O)NCC(=O)N[C@@H](CCCCN)C(=O)O)C(C)C [BT1-N-GLP-1],Remaining peak area (%)/DPP-IV,[1]; 0.0 h,100.0 ± 0.0%
same,"remaining at 0.5 h, 25 μM","[1]; isolated DPP-IV enzyme in buffer, pH 8, 0.5 h",88.9 ± 0.8%
same,"remaining at 2 h, 25 μM","[1]; isolated DPP-IV enzyme in buffer, pH 8, 2.0 h",87 ± 2.7%
same,"remaining at 4 h, 25 μM","[1]; isolated DPP-IV enzyme in buffer, pH 8, 4.0 h",85.8 ± 1.8%
same,"remaining at 8 h, 25 μM","[1]; isolated DPP-IV enzyme in buffer, pH 8, 8.0 h",87.3 ± 2%
same,"remaining at 12 h, 25 μM","[1]; isolated DPP-IV enzyme in buffer, pH 8, 12.0 h",84.8 ± 1.6%
same,Remaining peak area (%)/NEP24.11,[2]; 0.0 h,100.0 ± 0.0%
same,"remaining at 0.5 h, 30 μM","[2]; isolated NEP24.11 enzyme in buffer, pH 7.4, 0.5 h",90.8 ± 7.1%
same,"remaining at 2 h, 30 μM","[2]; isolated NEP24.11 enzyme in buffer, pH 7.4, 2.0 h",78.8 ± 8%
same,"remaining at 4 h, 30 μM","[2]; isolated NEP24.11 enzyme in buffer, pH 7.4, 4.0 h",77.8 ± 4.3%
same,"remaining at 8 h, 30 μM","[2]; isolated NEP24.11 enzyme in buffer, pH 7.4, 8.0 h, read-out: Remaining peak area (%)/NEP24.11",71.7 ± 4.9%
same,"remaining at 0.025 h, 60 μM",[3],90.9 ± 3.6%
same,"remaining at 0.05 h, 60 μM",[3],96.4 ± 4.9%
same,"remaining at 0.075 h, 60 μM",[3],91.4 ± 3.2%
same,"remaining at 0.1 h, 60 μM",[3],93.2 ± 7%
same,"remaining at 0.15 h, 60 μM",[3],88.8 ± 4%
same,"remaining at 0.25 h, 60 μM",[3],90 ± 4.4%
same,"remaining at 0.5 h, 60 μM",[3],91 ± 6.6%
same,"remaining at 1 h, 60 μM",[3],88.9 ± 3%
same,"remaining at 0.025 h, 60 μM",[4],69 ± 4.4%
same,"remaining at 0.05 h, 60 μM",[4],58.1 ± 4.9%
same,"remaining at 0.075 h, 60 μM",[4],53.2%
same,"remaining at 0.1 h, 60 μM",[4],23.1 ± 0.9%
same,"remaining at 0.15 h, 60 μM",[4],23.5 ± 0.2%
